≈ marks a conversion by molar mass, not a printed value. Like-named read-outs stand apart in the source and are kept apart here. Bounds are passed on as bounds.

The target of one data set is T1, ERCC1-XPF (Homo sapiens, UniProt Q92889).
T1 construct: His6; made in house; host or cells: E. coli BL21 (DE3)
T1 sequence (Q92889 1-916): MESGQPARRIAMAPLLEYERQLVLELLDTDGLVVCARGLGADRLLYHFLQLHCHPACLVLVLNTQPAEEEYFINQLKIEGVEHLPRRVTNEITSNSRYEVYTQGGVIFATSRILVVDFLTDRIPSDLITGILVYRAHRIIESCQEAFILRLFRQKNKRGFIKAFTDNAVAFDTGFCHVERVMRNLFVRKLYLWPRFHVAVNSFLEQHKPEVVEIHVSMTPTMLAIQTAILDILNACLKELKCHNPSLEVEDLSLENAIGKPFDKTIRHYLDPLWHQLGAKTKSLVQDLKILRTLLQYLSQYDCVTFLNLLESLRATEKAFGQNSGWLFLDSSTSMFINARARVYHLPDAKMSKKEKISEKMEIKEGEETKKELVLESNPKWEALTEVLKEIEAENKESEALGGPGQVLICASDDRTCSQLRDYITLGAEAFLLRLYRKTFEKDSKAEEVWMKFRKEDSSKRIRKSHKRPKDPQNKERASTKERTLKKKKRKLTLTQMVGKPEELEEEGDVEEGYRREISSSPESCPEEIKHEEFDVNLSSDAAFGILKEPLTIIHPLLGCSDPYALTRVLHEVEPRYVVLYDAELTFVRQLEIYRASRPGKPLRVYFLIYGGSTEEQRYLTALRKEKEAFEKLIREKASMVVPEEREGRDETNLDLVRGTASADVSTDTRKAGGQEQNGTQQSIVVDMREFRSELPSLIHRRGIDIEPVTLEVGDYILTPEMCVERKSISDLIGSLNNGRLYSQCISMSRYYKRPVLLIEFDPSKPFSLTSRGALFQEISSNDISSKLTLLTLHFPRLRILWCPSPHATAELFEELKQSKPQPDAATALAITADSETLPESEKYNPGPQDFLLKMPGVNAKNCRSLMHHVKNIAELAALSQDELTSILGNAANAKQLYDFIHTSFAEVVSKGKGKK
The data set can be described thus: Microplate fluorescence incision assay of ERCC1-XPF endonuclease activity. The data set is classed as biochemical. Particulars: for inhibition of ERCC1-XPF endonuclease activity (in words): compounds 10 μM each. From the text:
This assay has been previously described (29), and utilizes a stem-loop substrate (composed of a 10mer-duplex stem and a 20mer-oligodT single-strand loop), labelled on the 5′-terminus with 6-FAM and 3′ with the quencher dabcyl.
Human ERCC1-XPF wild-type protein was obtained as previously described (29). Basically, the recombinant protein was expressed from a bicistronic plasmid (provided by Dr. Richard Wood, University of Texas MD Anderson Cancer Center, Smithville, Tex.) in the E. coli BL21 (DE3) strain. Since both XPF and ERCC1 contained a polyhistidine (His-6) tag, the proteins extracted from E. coli were incubated with a ProBond Nickel-Chelating Resin (Thermo Fisher Scientific). Protein eluted from the Ni affinity column was subsequently loaded into a Hi-trap heparin column (GE Healthcare). Fractions recovered from the heparin column that contained ERCC1-XPF were dialyzed, concentrated and stored at −80° C. in 10 mM HEPES pH 7.4, 2.5 mM p-mercaptoethanol, 0.01% CHAPS, 0.25 mM EDTA, 50% glycerol and 25 mM NaCl.
A previously described protocol (2,29) was followed.

A further data set deals with T2, ERCC1-XPF complex (Homo sapiens, UniProt Q92889).
T2 construct: His6; made in house; host or cells: E. coli BL21 (DE3)
T2 sequence (Q92889 1-916): T1 sequence (Q92889 1-916)
The data set can be described thus: Steady-state intrinsic tryptophan fluorescence quenching binding assay. The protocol:
Steady-state fluorescence spectra were measured at room temperature on a Perkin-Elmer LS-55 spectrofluorometer (Freemont, Calif.) with 5 nm spectral resolution for excitation and emission using 30-80 nM solution of purified recombinant ERCC1-XPF protein complex. […] In studying the effects of inhibitors on protein fluorescence intensities, additions to protein samples were made from inhibitors stock solutions, keeping the protein dilution below 3%.

Data set [1] has as its system HCT116 cells. The data set can be described thus: Clonogenic survival assay, UV treatment. The data set is classed as cell-based, human. The settings on record: 254 nm UV 0-10 J/m^2; compound 0.5-4 μM. The protocol:
UV treatment: HCT116 cells (100-800 cells depending on the UV dose) were plated in triplicate in 60-mm petri dishes. The cells were incubated overnight at 37° C. in a humidified atmosphere containing 5% CO2 to allow for cell attachment. […] Medium was removed again, and cells were exposed to increasing doses (0-10 J/m^2) of UV-C radiation and then incubated for a further 10 days in the presence of inhibitor at 37° C. in a 5% CO2 atmosphere to allow for colony formation. After this period plates were stained with crystal violet and colonies were counted using a Colcount instrument (Oxford Optronix, Abingdon UK). Finally, plating efficiency and surviving fraction were calculated.

In data set [2] the test system is HCT116 cells. The data set can be described thus: Cytotoxicity profile: crystal violet viability assay (and colony forming assay). The data set is classed as cell-based, human. The settings on record: 5 μM, 3 days exposure, crystal violet. As to the method: Crystal violet viability assays were carried out to assess the cellular toxicity of these compounds to HCT116 cells and to choose relatively non-cytotoxic concentrations to be further utilised in sensitizing cells to UV radiation or cyclophosphamide.
The beneficial effect is especially visible at a concentration of 5.0 μM. At higher concentrations, both compounds show an equal cytotoxic effect (FIG. 15).

A short description of data set [3]: ADME screening: solubility. The data set is classed as physicochemical. Particulars: Table 8.
In a further data set the test system is serum proteins. In words: ADME screening: serum protein binding. It counts as in vitro ADME. The settings on record: Table 8.
The nature of data set [4]: Hepatocyte stability in vitro. It counts as in vitro ADME. The settings on record: Table 8.
Data set [5] relates to interaction between ERCC1 and XPF. Particulars: in vitro; cited from earlier work.
Another data set has as its system cancer cells. The settings on record: cited from earlier work.
Data set [6] is described as follows: ADME screening: cell permeability and efflux ratio. The settings on record: for Cell permeability (Mean recovery %) (in words): Table 8; for efflux ratio: not told.
Data set [7] relates to five CYP450 enzymes (CYP1A2, CYP2C9, CYP2C19, CYP2D6, CYP3A4-M). In words: ADME screening: CYP inhibition (five CYP450 enzymes). The settings on record: human.
Data set [8] has as its system five CYP450 tested enzymes. The data set is described as above. Particulars: Table 8.
Data set [9] in a line: Microsomal stability in vitro (human liver microsomes). Particulars: for Microsomal stability in vitro CLint (in words): Table 8. A general note: Liver microsomes are a subcellular fraction often used to study metabolism.
A further data set addresses DNA. The data set can be described thus: Binding constant to DNA. Particulars: Table 7.
For data set [10], the system named is HCT116 cells. In words: Cellular repair of UV-induced cyclobutane pyrimidine dimers (immunofluorescence). It counts as cell-based, human. The settings on record: 8 J/m^2 UV-C, up to 24 h post-irradiation. As to the method: Protocol of Mirzayans et al. was followed with minor modifications (30). Approximately 1×10^5 HCT116 cells were seeded on each coverslip and allowed to attach overnight. Medium was then removed and cells were treated for one hour with the desired compound. The medium was removed, and cells were exposed to 8 J/m^2 UV-C radiation (G15T8 254 nm lamp, Ushio America Inc, Cypress, Calif.) followed by adding fresh medium containing the compound. Plates were incubated at 37° C. for different periods of time up to 24 hours and fixed in 50:50 methanol/1× phosphate-buffered saline (PBS) solution, followed by replacing the methanol/PBS solution with 100% methanol and incubation in −20° C. After 20 minutes, methanol was removed, and cells were treated with PBS for 5 minutes in room temperature. After fixing, cells were permeabilized in 0.5% Triton/PBS and washed with PBS, denatured in 2 N HCl, and neutralized by twice washing with 0.1 M borate buffer pH 8.5. Cells on cover slips were washed once with PBS followed by blocking with 5% non-fat dry milk/PBS for 30 minutes. Mouse anti-thymine dimer monoclonal antibody (Cat. No. MC-062, Kamiya Biomedical Company, Seattle, Wash.) was applied to the cover slips for one hour in the dark and at room temperature. Cells were then washed with PBS containing 0.1% Tween-20 and incubated with rabbit anti-mouse IgG-Alexafluor antibody (Invitrogen, Carlsbad, Calif.) followed by two washes with PBS/(0.1%)Tween-20. Cells on coverslips were then washed with PBS, rinsed with water, and mounted on slides using DAPI glycerol mounting solution. Slides were kept at 4° C. before fluorescent microscopic evaluation and measurement of fluorescence intensity with MetaXpress Version: 6.2.1.704 software (Molecular Devices, Sunnyvale, Calif.).
To test for inhibition of nucleotide excision repair, we monitored the cellular removal of UVC-induced cyclobutane pyrimidine dimers (CPDs) in HCT116 cells over a 24-hour period using an immunochemical assay.

Data set [11] concerns HCT116 cells. The data set can be described thus: Clonogenic survival assay, cyclophosphamide treatment. The data set is classed as cell-based, human. Particulars: cyclophosphamide 0-300 μM; compound 1-4 μM. The protocol:
Plates were incubated for another 8 days at 37° C. in a 5% CO2 atmosphere for colony formation. After this period plates were stained with crystal violet, colonies were counted, and plating efficiency and surviving fraction were calculated.

Consider `COc1ccc2nc3cc(Cl)ccc3c(Nc3ccc(O)c(CN4CCN(C)CC4)c3)c2c1` [Compound F06, 4-((6-Chloro-2-methoxyacridin-9-yl)amino)-2-((4-methylpiperazin-1-yl)methyl)phenol, reference compound], for which the IC50 (in general, the midpoint of a concentration-inhibition curve) at ERCC1-XPF was 1860 nM; against ERCC1-XPF (Table 7, at least three experiments of Vo versus concentration), 1860 ± 250 nM; on ERCC1-XPF (read-out: IC50 of ERCC1-XPF endonuclease activity, full-length ERCC1-XPF, 30 minutes incubation, 5% DMSO), 1860 ± 250 nM; at ERCC1-XPF (read-out: IC50 ± SD, Table 6, at least three experiments of Vo versus concentration, 30 minutes incubation, 5% DMSO) it was 1860 ± 250 nM; in [7] it was not below 1000 nM. For the same compound, the “inhibition of ERCC1-XPF endonuclease activity (in words)” value against ERCC1-XPF is listed as “marked capacity to inhibit”. Also, the Kd (usually the equilibrium constant for the complex coming apart) came out at 140 ± 5 nM at ERCC1-XPF complex (Table 6, read-out: Kd ± SD) and 140 ± 5 nM on ERCC1-XPF complex (Table 7, read-out: Kd protein). For the same compound, the “sensitisation to UV radiation, clonogenic survival (in words)” value in the data set on HCT116 cells [1] is listed as “modest sensitisation capacity”. The cells survived entry with HCT116 cells [2] was “about 35%”. In addition, the “Solubility (in words)” value in data set [3] is given as “(partially soluble)”. The solubility (in general, the dissolved amount per volume that the medium holds) in data set [3] (<1.56 means below lower limit of quantilation) is 8.13 µM (≈ 3.76 µg/mL). Besides, in the data set with serum proteins, the “Serum protein binding (% bound)” value is listed as “(99.9) % bound”. Further, the “Serum protein binding (in words)” value with serum proteins is on record as “Strong binding”. In data set [4], the “Hepatocyte stability in vitro CLint (in words)” value was “(medium clearance)”. In addition, the CLint scaled (usually a measure of how fast metabolising enzymes remove a compound, apart from limits set by blood flow) in data set [4] (hepatocytes) is less than 17.8 mL/min/kg; in data set [9] (human, liver microsomes), 53.7 mL/min/kg. Further, the “effect on the interaction between ERCC1 and XPF (in words)” value in data set [5] is “repressed the interaction between ERCC1 and XPF in vitro”. Besides, the “sensitization of cancer cells to MMC and cisplatin (in words)” value in the data set with cancer cells is “sensitized cancer cells to MMC and cisplatin”. Besides, the “LogD (rating)” value in “ADME screening: LogD” (Table 8) is “Good”. The “LogD (remark in the LogD row)” value in “ADME screening: LogD” (Table 8) is “(partially soluble)”. In “ADME screening: LogD” (Table 8), the logD (commonly lipophilicity at a set pH, counting ionised and neutral species) was determined as 3.86. Moreover, the log D (as a rule, the decadic logarithm of the distribution of all forms, ionised or not, between an organic phase and buffer at a given pH) in “ADME screening: LogD” (pH 7.4) is 3.86. For the same compound, the “Cell permeability (Mean recovery %) (in words)” value in data set [6] was “Low (common)”. The efflux ratio (in general, a quotient of directional permeabilities that is used to spot active efflux) in [6] was more than 2; in [6] (efflux ratio), 11.2. Moreover, the “CVP inhibition (5 enzyme) (rating)” value in [8] is “Moderate”. In data set [9], the “Microsomal stability in vitro CLint (in words)” value is given as “high”.

In the case of `CN(C)CCN1CCN(Cc2cc(Nc3c4ccc(Cl)cc4nc4ccc(O)cc34)ccc2O)CC1` [Gen B9], the “inhibition of ERCC1-XPF endonuclease activity (in words)” value against ERCC1-XPF is “marked capacity to inhibit”. The IC50 on ERCC1-XPF (full-length ERCC1-XPF, 30 minutes incubation, 5% DMSO, read-out: IC50 of ERCC1-XPF endonuclease activity) is 490 nM. Also, the Kd on ERCC1-XPF complex (Table 7, read-out: Kd protein) worked out at 85 ± 5 nM. This compound also came in with a Kd at DNA of 1050 ± 50 nM. The “inhibition of cellular removal of CPDs / thymidine dimers (in words)” value in the data set with HCT116 cells [10] is listed as “significantly inhibited the removal of CPDs”. Besides, the “inhibition of cellular removal of CPDs / thymidine dimers (in words)” value in the data set with HCT116 cells [10] (listed as B9) is recorded as “significantly different”. For the same compound, the “sensitisation to UV radiation, clonogenic survival (in words)” value in the data set with HCT116 cells [1] is “significantly reduced the survival”. In addition, the “sensitisation to cyclophosphamide, clonogenic survival (in words)” value in the data set on HCT116 cells [11] was “significantly sensitised the HCT116 cells to cyclophosphamide”. Also, the cells survived result in the data set on HCT116 cells [2] was “approximately 95%”. Further, the “Solubility (in words)” value in data set [3] is “Unstable”. In addition, the “LogD (rating)” value in the data set “ADME screening: LogD” (Table 8) is “Good”. This compound also gave a logD in the data set “ADME screening: LogD” (pH 7.4) of 2.01. Also, in data set [6], the “Cell permeability (Mean recovery %) (in words)” value is listed as “Low” and the efflux ratio is more than 2. In data set [9], the “metabolism on exposure to human liver microsomes (in words)” value is listed as “moderate metabolism” and the “Microsomal stability in vitro CLint (in words)” value was “Moderate”.
